Measured values from PMC6550177, “Statuses of food-derived glutathione in intestine, blood, and liver of rat” (NPJ Science of Food, 2018).
Entries after “also recorded” stand apart in the source; their conditions may differ. Each block holds one molecule with its values, some of them ahead of it.

Legend:
[1] = rat
Description: (§1) All animals were treated and cared in accordance with the National Institutes of Health’s guidelines for the use of experimental animals. All experimental procedures were approved by the Animal Care Committee of Kyoto Prefectural University (No. KPU260400-260421). Seven-week-old Wister rats (body weight 200–220 g) were housed in a 12-h light-dark cycle and allowed free access to standard rat chow and water. […] The plasma was prepared by centrifugation at 800×g for 10 min at 4 °C. The liver and small intestines were taken from the rats. The intestines were flushed with about 40 mL of cold PBS to remove its contents. The blood in the liver was purged by infusing cold PBS into the portal vein. Samples were stored at −80 °C until use.
(§2) The plasma (100 μL) was mixed with three fold volumes of ethanol. The supernatant and precipitate obtained were harvested by centrifugation at 14,200×g at 4 °C for 10 min. The supernatant was referred to as the low-molecular-weight fraction of the plasma. Aliquots of the low-molecular-weight fraction (300 μL each) were dried under vacuum, and processed using two methods. Some dried aliquots were treated with 50 μL of 5% TCA-2% 2-mercaptoethanol solution for 30 min and used in determining the total glutathione and related peptides. Free and bound-form glutathione were bound to 2-mercaptoethnol.[6] Other dried aliquots of the fraction (300 μL) were treated with 50 μL of 20 mM NEM in PBS for 10 min. Only free glutathione bound to NEM, as NEM has no reducing activity. The reaction was terminated by adding 50 μL of 5% TCA solution. The NEM-treated fraction was used in determination of the reduced-form of glutathione and glutathione disulfide.
(§3) The ethanol precipitate of the plasma was further washed with 200 μL of 75% (v/v) ethanol twice. The residue was collected by centrifugation at 14,200×g at 4 °C. Protein-bound glutathione and related peptides were liberated from the residue by extracting with 100 μL of 5% TCA-2% 2-mercaptoethanol with occasional agitation for 30 min. The supernatant obtained after centrifugation was used to determine the protein-bound form of glutathione and related peptides.[6]
(§4) The 5% TCA–2% 2-mercaptoethanol extracts (50 μL) were dried under vacuum to remove excess amounts of 2-mercaptoethanol; thereafter, 20 μL of an alkaline solution was added to neutralize the extracts and they were again dried under vacuum. The residues were mixed with 20 μL of 20 mM HCl, 60 μL of the sodium borate buffer provided with the AccQ Tag Ultra Derivatization Kit, and 20 μL of 0.3% (w/v) AccQ acetonitrile solution and heated at 50 °C for 10 min to obtain their AccQ derivatives. Then, the reaction mixtures were diluted with adequate amounts of 5 mM sodium phosphate buffer (pH 7.4) containing 10% (v/v) acetonitrile and filtered using a 0.45-μm filter (Cosmonice filter W, Nacalai Tesque). The filtrates were subjected to LC-MS/MS using a 3200 QTRAP system (AB SCIEX, Framingham, MA) as previously described.[6]
(§5) Without 2-mercaptoethanol, the sulfhydryl group of glutathione was conjugated with NEM in PBS. The NEM-glutathione derivative was directly subjected to LC-MS/MS to determine the reduced-form of glutathione. With NEM, glutathione disulfide was conjugated with two molecules of AccQs, and the resultant AccQ derivative of glutathione disulfide was subjected to the LC-MS/MS as described above. Reduced-form glutathione (2 nmol) was added to the ethanol-soluble fraction of plasma from portal blood.

[2] = Food-derived glutathione in washed intestine and liver after oral gavage of 13C-labeled compound (LC-MS/MS); details: rat
Description: Rats were acclimatized for a week, divided into four groups, and were given 1 mL of glutathione-1-^13C (50 mg/kg body weight) or NAC-1-^13C (50 mg/kg body weight) solutions using an oral gavage.
Portions of the thoroughly washed intestines and livers were homogenized in the same weight of PBS using a BioMasher (Nippi, Tokyo, Japan). The obtained homogenates were then mixed with the same volumes of 10% (v/v) TCA-4% (v/v) 2-mercaptoethanol and allowed to stand for 30 min at 25°C. The supernatant was collected and used to determine the total amounts of glutathione and related peptides. Another set of intestines and livers were homogenized in the same volume of PBS containing 20 mM NEM and then allowed to stand for 10 min at 25 °C. The homogenate were further diluted with another three fold volumes of PBS without NEM, and mixed with the same volume of 10% (v/v) TCA. […] The precipitate was washed with the same weight of 10% TCA three times, and the protein-bound form of glutathione was extracted with the same weight of 10% TCA-4% 2-mercaptoethanol as described above.
The 5% TCA–2% 2-mercaptoethanol extracts (50 μL) were dried under vacuum to remove excess amounts of 2-mercaptoethanol; thereafter, 20 μL of an alkaline solution was added to neutralize the extracts and they were again dried under vacuum.
With NEM, glutathione disulfide was conjugated with two molecules of AccQs, and the resultant AccQ derivative of glutathione disulfide was subjected to the LC-MS/MS as described above.

in vivo = details: Wister, rat, po, 50 mg/kg, 60 min after ingestion
Description: as §1, §2, §3, §4, §5

[3] = humans, dietary supplementation; cited from earlier work
[4] = mice, 12 weeks supplementation, 50 mg/kg body weight, preliminary experiment
[5] = oral administration, vs placebo controls; cited from earlier work
[6] = animals, oral administration; cited from earlier work
[7] = patients with non-alcoholic fatty liver disease, oral administration; cited from earlier work
[8] = system: peroxisome proliferator-activated receptor gamma coactivator 1-alpha (PGC-1α); details: cited from earlier work
[9] = oral administration, vs placebo controls; cited from earlier work; remark: listed apart in the source

Molecule: CC(=O)N[C@@H](CS)[13C](=O)O [NAC, N-acetylcysteine-1-^13C]
NAC-derived glutathione (and fragment peptides) in blood plasma ([1]; oral 50 mg/kg, within 120 min, 50 mg/kg): not detected; also recorded: no significant amounts
Food-derived glutathione in intestines and liver after ingestion of NAC ([2]; oral 50 mg/kg): present

Molecule: O=C1O[C@H]([C@@H](O)CO)C(O)=C1O [vitamin C]
Exercise-induced increase of PGC-1α [8]: suppress

Molecule: vitamin E
Exercise-induced increase of PGC-1α [8]: suppress

Continued, in another order:

concentration at 60 min (in vivo; Food-derived glutathione level in low-molecular-weight fraction of blood from hepatic portal vein): ~400 nM
concentration at 60 min (in vivo; Food-derived glutathione level in low-molecular-weight fraction of blood from inferior vena cava): < 100 nM
Food-derived glutathione in protein-bound fraction, plasma from portal vein vs inferior vena cava ([1]; after oral glutathione): insignificantly different
Food-derived Cys-Gly, γ-Glu-Cys and glutathione disulfide in the liver without blood [2]: negligible amounts
Food-derived glutathione as share of total glutathione in the liver ([2]; 120 min after administration at 50 mg/kg): approximately 5%
Molecule: N[C@@H](CCC(=O)N[C@@H](CS)C(=O)NCC(=O)O)C(=O)O [glutathione, γ-L-glutamyl-L-cysteinyl-glycine]
Protein-bound glutathione in the blood plasma [3]: increase
Liver glutathione levels compared to controls [4]: did not significantly increase
Exercise-induced fatigue [5]: reduce
Reduced-form glutathione and glutathione disulfide in low-molecular-weight fraction of plasma from portal vein ([1]; after oral glutathione, LC-MS/MS multi-reaction monitoring): no reduced-form glutathione and glutathione disulfide were detected
Liver glutathione level [6]: increase the liver glutathione level
Plasma alanine aminotransferase and free fatty acid levels [7]: significantly reduce
PGC-1α / mitochondrial biogenesis ([8]; previous animal experiment): enhances mitochondrial biogenesis by increasing
Melanin indices on the skin [9]: reduce melanin indices on the skin

Food-derived Cys-Gly and γ-Glu-Cys in plasma ([1]; in vivo, po): significant amounts
Food-derived Cys-Gly and γ-Glu-Cys in intestines and liver ([2]; in vivo, po): negligible amounts
Food-derived glutathione content in intestine ([2]; in vivo, po, 50 mg/kg): approximately 60 μmol/kg
Food-derived glutathione content in liver ([2]; in vivo, po, 50 mg/kg): ~300 µmol/kg
Molecule: N[C@@H](CCC(=O)N[C@@H](CS)[13C](=O)NCC(=O)O)C(=O)O [glutathione-1-^13C, Glutathione-1-^13C]
Status (form) of food-derived glutathione in blood plasma ([1]; in vivo, po, 50 mg/kg): conjugated with proteins and low-molecular-weight thiol compounds
